Source: publication PMC7725003, “Systematically Studying the Optimal Amino Acid Distribution Patterns of the Amphiphilic Structure by Using the Ultrashort Amphiphiles” (Frontiers in Microbiology, 2020)
Where no end group is shown, it is not given here.

What was measured:
B. subtilis 63501 = type: cell-based, Bacillus subtilis; settings: 63501, 24 h
Procedure: (§1) The antimicrobial activities of the peptides were measured using a method adapted from the National Committee for Clinical Laboratory Standards (NCCLS) with some modifications ([Chou et al., 2016]). The specific procedure for these assays has been previously described. In brief, the bacterial cells were grown to a mid-logarithmic phase and diluted in MHB to an ultimate concentration of 0.5–1 × 10^6 CFU mL^–1. Subsequently, the peptides were consecutively diluted in a 0.2% BSA solution and then added to a bacterial solution in a 96-well plate at identical volumes. After incubation for 24 h at 37°C, the MICs were determined to be the lowest peptide concentration that inhibited 95% of the bacterial growth by monitoring the absorbance at 492 nm using a microplate reader. Subsequently, 50 μL of each incubation mixture was further transferred to agar plates and incubated overnight. The minimum bactericidal concentrations (MBCs) were determined as the lowest peptide concentration that killed greater than 99.9% of the bacterial cells. Every assay was reproduced more than 3 times.

P. aeruginosa 27853 = type: cell-based, Pseudomonas aeruginosa; settings: 27853, 24 h
Procedure: as §1

E. faecalis 29212 = type: cell-based, Enterococcus faecalis; settings: 29212, 24 h
Procedure: as §1

S. pullorum 7913 = type: cell-based, Salmonella pullorum; settings: 7913, 24 h
Procedure: as §1

MRSA 43300 = type: cell-based, methicillin-resistant S. aureus; settings: 43300, 24 h
Procedure: as §1

[1] = test system: Listeria monocytogenes CGMCC 1.1075; type: cell-based; settings: CGMCC 1.1075, 24 h
Procedure: as §1

[2] = test system: all of the tested bacterial strains; assay: Geometric mean of MICs, all tested bacterial strains; type: cell-based; settings: for GM, All: geometric mean of MICs across all tested strains; for TI, All: therapeutic index TI = MHC/GM MIC
Text: The antimicrobial activity of AMPs is the most decisive index for evaluating the clinical application of antimicrobial drugs. Many antimicrobial agents inhibit bacterial growth rather than kill the bacteria quickly, and long-term infections are pathogens that are not completely killed, which results in bacterial severe drug resistance. […] The geometric mean (GM) values of the MICs/MBCs of the two series across all of the tested bacterial strains are represented in Table 3, which depicts the average bacteriostatic/bactericidal level of a peptide.
as §1

E. coli ATCC 25922 = assay: Salt sensitivity assay (MIC); type: cell-based, Escherichia coli; settings: for MIC, FeCl3: 4 μM FeCl3; for MIC, NH4Cl: 6 μM NH4Cl; for MIC, ZnCl2: 8 μM ZnCl2; for MIC, MgCl2: 1 mM MgCl2; for MIC, CaCl2: 2 mM CaCl2; for MIC, KCl: 4.5 mM KCl; for MIC, NaCl: 150 mM NaCl; for MIC, Control: no added salt, three independent assays
Procedure: as §1
(§2) The salt sensitivities of the peptides were determined. E. coli ATCC 25922 and S. aureus ATCC 29213 were incubated in the presence of various ultimate concentrations of physiological salts (150 mM NaCl, 4.5 mM KCl, 6 μM NH4Cl, 8 μM ZnCl2, 1 mM MgCl2, 2mM CaCl2, and 4 μM FeCl3) according to our previous protocol ([Yang et al., 2019]). These tests were performed under the MICs, and three independent assays were performed.

S. epidermidis 12228 = type: cell-based, Staphylococcus epidermidis; settings: 12228, 24 h
Procedure: as §1

E. coli 25922 = type: cell-based, Escherichia coli; settings: 25922, 24 h
Procedure: as §1

E. coli O78 = type: cell-based, Escherichia coli; settings: O78, 24 h
Procedure: as §1

E. coli UB1005 = type: cell-based, Escherichia coli; settings: UB1005, 24 h
Procedure: as §1

Gram-negative bacteria = settings: for GM, Gram-negative bacteria: geometric mean of MICs (Table 3); for TI, Gram-negative bacteria: therapeutic index TI = MHC/GM MIC
Procedure: (§3) The antimicrobial activity of AMPs is the most decisive index for evaluating the clinical application of antimicrobial drugs.
as §1, with “The minimum bactericidal concentrations (MBCs) were determined as the lowest peptide concentration that killed greater than 99.9% of the bacterial cells.” left out

Gram-positive bacteria = settings: for GM, Gram-positive bacteria: geometric mean of MICs (Table 3); for TI, Gram-positive bacteria: therapeutic index TI = MHC/GM MIC
Procedure: as §3
as §1, with “The minimum bactericidal concentrations (MBCs) were determined as the lowest peptide concentration that killed greater than 99.9% of the bacterial cells.” left out

S. aureus 25923 = type: cell-based, Staphylococcus aureus; settings: 25923, 24 h
Procedure: as §1

S. aureus 29213 [3] = type: cell-based, Staphylococcus aureus; settings: 29213, 24 h
Procedure: as §1

S. typhimurium 14028 = type: cell-based, Salmonella typhimurium; settings: 14028, 24 h
Procedure: as §1

S. typhimurium 7731 = type: cell-based, Salmonella typhimurium; settings: 7731, 24 h
Procedure: as §1

S. aureus 29213 [4] = assay: Salt sensitivity assay (MIC); type: cell-based, Staphylococcus aureus; settings: for MIC, FeCl3: 4 μM FeCl3; for MIC, NH4Cl: 6 μM NH4Cl; for MIC, ZnCl2: 8 μM ZnCl2; for MIC, MgCl2: 1 mM MgCl2; for MIC, CaCl2: 2 mM CaCl2; for MIC, KCl: 4.5 mM KCl; for MIC, NaCl: 150 mM NaCl; for MIC, Control: no added salt, three independent assays
Procedure: as §1, §2

WRRWRWRWW-NH2 [W3]
69.75: TI, All [2]
1 µM: MIC (B. subtilis 63501)
4.67 µM: GM, Gram-negative bacteria (Gram-negative bacteria)
2 µM: MBC (B. subtilis 63501) | MIC (S. pullorum 7913) | MIC (MRSA 43300) | MIC (S. epidermidis 12228) | MIC, KCl (S. aureus 29213 [4])
8 µM: MBC (P. aeruginosa 27853) | MBC (E. faecalis 29212) | MBC [1] | MIC, FeCl3 (E. coli ATCC 25922) | MIC, ZnCl2 (E. coli ATCC 25922) | MIC, MgCl2 (E. coli ATCC 25922) | MIC, CaCl2 (E. coli ATCC 25922) | MIC, KCl (E. coli ATCC 25922) | MBC (E. coli 25922) | MBC (E. coli O78) | MBC (E. coli UB1005) | MBC (S. aureus 25923) | MBC (S. aureus 29213 [3]) | MBC (S. typhimurium 14028) | MIC (S. typhimurium 7731) | MIC, FeCl3 (S. aureus 29213 [4]) | MIC, NH4Cl (S. aureus 29213 [4]) | MIC, NaCl (S. aureus 29213 [4])
54.82: TI, Gram-negative bacteria (Gram-negative bacteria)
3.67 µM: GM, All [2]
95.17: TI, Gram-positive bacteria (Gram-positive bacteria)
4 µM: MIC (P. aeruginosa 27853) | MIC (E. faecalis 29212) | MBC (S. pullorum 7913) | MBC (MRSA 43300) | MIC [1] | MIC, NH4Cl (E. coli ATCC 25922) | MIC, Control (E. coli ATCC 25922) | MBC (S. epidermidis 12228) | MIC (E. coli 25922) | MIC (E. coli O78) | MIC (E. coli UB1005) | MIC (S. aureus 25923) | MIC (S. aureus 29213 [3]) | MIC (S. typhimurium 14028) | MIC, ZnCl2 (S. aureus 29213 [4]) | MIC, MgCl2 (S. aureus 29213 [4]) | MIC, CaCl2 (S. aureus 29213 [4]) | MIC, Control (S. aureus 29213 [4])
16 µM: MIC, NaCl (E. coli ATCC 25922) | MBC (S. typhimurium 7731)
2.69 µM: GM, Gram-positive bacteria (Gram-positive bacteria)

WWRWRRRWW-NH2 [W2]
8 µM: MIC (E. faecalis 29212) | MBC (S. pullorum 7913) | MIC, FeCl3 (E. coli ATCC 25922) | MIC, CaCl2 (E. coli ATCC 25922) | MBC (E. coli 25922) | MIC (E. coli O78) | MBC (E. coli UB1005) | MIC (S. typhimurium 14028) | MBC (S. typhimurium 7731)
86.20: TI, Gram-positive bacteria (Gram-positive bacteria)
2.97 µM: GM, Gram-positive bacteria (Gram-positive bacteria)
4 µM: MIC (S. pullorum 7913) | MBC (MRSA 43300) | MIC, NH4Cl (E. coli ATCC 25922) | MIC, ZnCl2 (E. coli ATCC 25922) | MIC, MgCl2 (E. coli ATCC 25922) | MIC, KCl (E. coli ATCC 25922) | MIC, Control (E. coli ATCC 25922) | MBC (S. epidermidis 12228) | MIC (E. coli 25922) | MIC (E. coli UB1005) | MBC (S. aureus 25923) | MBC (S. aureus 29213 [3]) | MIC (S. typhimurium 7731) | MIC, FeCl3 (S. aureus 29213 [4]) | MIC, ZnCl2 (S. aureus 29213 [4]) | MIC, MgCl2 (S. aureus 29213 [4]) | MIC, CaCl2 (S. aureus 29213 [4]) | MIC, KCl (S. aureus 29213 [4]) | MIC, NaCl (S. aureus 29213 [4])
2 µM: MBC (B. subtilis 63501) | MIC (MRSA 43300) | MIC (S. epidermidis 12228) | MIC (S. aureus 25923) | MIC (S. aureus 29213 [3]) | MIC, NH4Cl (S. aureus 29213 [4]) | MIC, Control (S. aureus 29213 [4])
61.24: TI, All [2]
5.44 µM: GM, Gram-negative bacteria (Gram-negative bacteria)
32 µM: MBC (P. aeruginosa 27853) | MBC [1]
1 µM: MIC (B. subtilis 63501)
4.18 µM: GM, All [2]
16 µM: MIC (P. aeruginosa 27853) | MBC (E. faecalis 29212) | MIC [1] | MIC, NaCl (E. coli ATCC 25922) | MBC (E. coli O78) | MBC (S. typhimurium 14028)
47.06: TI, Gram-negative bacteria (Gram-negative bacteria)

WRRRWWWWR-NH2 [W6]
1 µM: MIC (B. subtilis 63501)
4 µM: MIC (E. faecalis 29212) | MBC (MRSA 43300) | MBC [1] | MIC, FeCl3 (E. coli ATCC 25922) | MIC, ZnCl2 (E. coli ATCC 25922) | MIC, Control (E. coli ATCC 25922) | MIC (S. epidermidis 12228) | MIC (E. coli 25922) | MIC (E. coli O78) | MIC (E. coli UB1005) | MBC (S. aureus 25923) | MBC (S. aureus 29213 [3]) | MIC, MgCl2 (S. aureus 29213 [4]) | MIC, CaCl2 (S. aureus 29213 [4]) | MIC, NaCl (S. aureus 29213 [4])
2 µM: MBC (B. subtilis 63501) | MIC (MRSA 43300) | MIC [1] | MIC, NH4Cl (E. coli ATCC 25922) | MIC (S. aureus 25923) | MIC (S. aureus 29213 [3]) | MIC, FeCl3 (S. aureus 29213 [4]) | MIC, NH4Cl (S. aureus 29213 [4]) | MIC, ZnCl2 (S. aureus 29213 [4]) | MIC, KCl (S. aureus 29213 [4]) | MIC, Control (S. aureus 29213 [4])
8 µM: MIC (P. aeruginosa 27853) | MBC (E. faecalis 29212) | MIC (S. pullorum 7913) | MIC, MgCl2 (E. coli ATCC 25922) | MIC, KCl (E. coli ATCC 25922) | MBC (S. epidermidis 12228) | MBC (E. coli 25922) | MBC (E. coli O78) | MBC (E. coli UB1005) | MIC (S. typhimurium 14028) | MIC (S. typhimurium 7731)
2.21 µM: GM, Gram-positive bacteria (Gram-positive bacteria)
16 µM: MBC (P. aeruginosa 27853) | MBC (S. pullorum 7913) | MIC, CaCl2 (E. coli ATCC 25922) | MIC, NaCl (E. coli ATCC 25922) | MBC (S. typhimurium 14028) | MBC (S. typhimurium 7731)
50.79: TI, Gram-negative bacteria (Gram-negative bacteria)
72.93: TI, All [2]
115.84: TI, Gram-positive bacteria (Gram-positive bacteria)
3.51 µM: GM, All [2]
5.04 µM: GM, Gram-negative bacteria (Gram-negative bacteria)
